Test results from ChEMBL document CHEMBL4680151, “Proton pump inhibitors selectively suppress MLL rearranged leukemia cells via disrupting MLL1-WDR5 protein-protein interaction” (Eur J Med Chem, 2020).
Activity calls are given as the source filed them. The calls are words filed in the database; no cut-off is given here.

Assays:
[1] = target: T1, Histone-lysine N-methyltransferase 2A/WDR5 (Homo sapiens) (UniProt P61964+Q03164); assay: Inhibition of MLL1-WDR5 interaction in human MV4-11 cells assessed as downregulation of Hoxa9 gene expression at 5 uM incubated for 6 days by qRT-PCR analysis; assay type: cell-based; conditions: time 6.0 day
[2] = target: T1, Histone-lysine N-methyltransferase 2A/WDR5 (Homo sapiens); assay: Inhibition of MLL1-WDR5 interaction in human MV4-11 cells assessed as downregulation of Meis1 gene expression at 5 uM incubated for 6 days by qRT-PCR analysis; assay type: cell-based; conditions: time 6.0 day
[3] = target: T1, Histone-lysine N-methyltransferase 2A/WDR5 (Homo sapiens); assay: Inhibition of MLL1-WDR5 interaction in human MV4-11 cells assessed as reduction in H3K4me1 expression at 5 uM incubated for 6 days by Western blot analysis; assay type: cell-based; conditions: time 6.0 day
[4] = target: T1, Histone-lysine N-methyltransferase 2A/WDR5 (Homo sapiens); assay: Inhibition of MLL1-WDR5 interaction in human MV4-11 cells assessed as reduction in H3K4me2 expression at 5 uM incubated for 6 days by Western blot analysis; assay type: cell-based; conditions: time 6.0 day
[5] = tested on: MV4-11; assay: Antiproliferative activity against human MV4-11 cells harboring MLL1-AF4; assay type: functional
[6] = tested on: MOLM-13; assay: Antiproliferative activity against human MOLM-13 cells harboring MLL1-AF9; assay type: functional
[7] = tested on: K562; assay: Antiproliferative activity against human K562 cells harboring MLL1; assay type: functional
[8] = Cytotoxicity against human L02 cells; assay type: cell-based
[9] = Cytotoxicity against HUVEC cells; assay type: cell-based; conditions: human
[10] = target: Histone-lysine N-methyltransferase 2A/WDR5 (Homo sapiens, UniProt P61964); assay: Inhibition of MLL1-WDR5 interaction […] assessed as reduction in MLL1 binding to WDR5 WIN site by 5-FAM probe based fluorescence polarization assay
[11] = tested on: MV4-11; assay: Induction of apoptosis in human MV4-11 cells harboring MLL1-AF4 assessed as viable cells at 5 uM incubated for 72 hrs by annexin V-FITC and propidium iodide staining based assay (reference value: 93.75 %); assay type: functional; conditions: read-out: Activity
[12] = tested on: MV4-11; assay: Induction of apoptosis in human MV4-11 cells harboring MLL1-AF4 assessed as early apoptotic cells at 5 uM incubated for 72 hrs by annexin V-FITC and propidium iodide staining based assay (reference value: 4.35 %); assay type: functional
[13] = tested on: MV4-11; assay: Induction of apoptosis in human MV4-11 cells harboring MLL1-AF4 assessed as late apoptotic cells at 5 uM incubated for 72 hrs by annexin V-FITC and propidium iodide staining based assay (reference value: 1.85 %); assay type: functional
[14] = tested on: MV4-11; assay: Induction of apoptosis in human MV4-11 cells harboring MLL1-AF4 assessed as necrotic cells at 5 uM incubated for 72 hrs by annexin V-FITC and propidium iodide staining based assay (reference value: 0.05 %); assay type: functional
[15] = tested on: MV4-11; assay: Induction of apoptosis in human MV4-11 cells harboring MLL1-AF4 assessed as viable cells at 10 uM incubated for 72 hrs by annexin V-FITC and propidium iodide staining based assay (reference value: 93.75 %); assay type: functional; conditions: read-out: Activity
[16] = tested on: MV4-11; assay: Induction of apoptosis in human MV4-11 cells harboring MLL1-AF4 assessed as early apoptotic cells at 10 uM incubated for 72 hrs by annexin V-FITC and propidium iodide staining based assay (reference value: 4.35 %); assay type: functional
[17] = tested on: MV4-11; assay: Induction of apoptosis in human MV4-11 cells harboring MLL1-AF4 assessed as late apoptotic cells at 10 uM incubated for 72 hrs by annexin V-FITC and propidium iodide staining based assay (reference value: 1.85 %); assay type: functional
[18] = tested on: MV4-11; assay: Induction of apoptosis in human MV4-11 cells harboring MLL1-AF4 assessed as necrotic cells at 10 uM incubated for 72 hrs by annexin V-FITC and propidium iodide staining based assay (reference value: 0.05 %); assay type: functional
[19] = tested on: MV4-11; assay: Induction of apoptosis in human MV4-11 cells harboring MLL1-AF4 assessed as viable cells at 25 uM incubated for 72 hrs by annexin V-FITC and propidium iodide staining based assay (reference value: 93.75 %); assay type: functional; conditions: read-out: Activity
[20] = tested on: MV4-11; assay: Induction of apoptosis in human MV4-11 cells harboring MLL1-AF4 assessed as early apoptotic cells at 25 uM incubated for 72 hrs by annexin V-FITC and propidium iodide staining based assay (reference value: 4.35 %); assay type: functional
[21] = tested on: MV4-11; assay: Induction of apoptosis in human MV4-11 cells harboring MLL1-AF4 assessed as late apoptotic cells at 25 uM incubated for 72 hrs by annexin V-FITC and propidium iodide staining based assay (reference value: 1.85 %); assay type: functional
[22] = tested on: MV4-11; assay: Induction of apoptosis in human MV4-11 cells harboring MLL1-AF4 assessed as necrotic cells at 25 uM incubated for 72 hrs by annexin V-FITC and propidium iodide staining based assay (reference value: 0.05 %); assay type: functional
[23] = tested on: MV4-11; assay: Induction of apoptosis in human MV4-11 cells harboring MLL1-AF4 incubated for 72 hrs by annexin V-FITC and propidium iodide staining based assay; assay type: functional, cell-based; conditions: dose 5-25 µM
[24] = target: T1, Histone-lysine N-methyltransferase 2A/WDR5 (Homo sapiens); assay: Inhibition of MLL1-WDR5 interaction in human MV4-11 cells assessed as downregulation of Hoxa9 gene expression incubated for 6 days by qRT-PCR analysis; assay type: cell-based; conditions: dose 1-20 µM, time 6.0 day
[25] = target: T1, Histone-lysine N-methyltransferase 2A/WDR5 (Homo sapiens); assay: Inhibition of MLL1-WDR5 interaction in human MV4-11 cells assessed as downregulation of Meis1 gene expression incubated for 6 days by qRT-PCR analysis; assay type: cell-based; conditions: dose 1-20 µM, time 6.0 day
[26] = target: T1, Histone-lysine N-methyltransferase 2A/WDR5 (Homo sapiens); assay: Inhibition of MLL1-WDR5 interaction in human MV4-11 cells assessed as reduction in H3K4me1 expression incubated for 6 days by Western blot analysis; assay type: cell-based; conditions: dose 0.1-20 µM, time 6.0 day
[27] = target: T1, Histone-lysine N-methyltransferase 2A/WDR5 (Homo sapiens); assay: Inhibition of MLL1-WDR5 interaction in human MV4-11 cells assessed as reduction in H3K4me2 expression incubated for 6 days by Western blot analysis; assay type: cell-based; conditions: dose 0.1-20 µM, time 6.0 day
[28] = target: T1, Histone-lysine N-methyltransferase 2A/WDR5 (Homo sapiens); assay: Inhibition of MLL1-WDR5 interaction in human MV4-11 cells assessed as downregulation of Hoxa9 gene expression at 10 uM incubated for 6 days by qRT-PCR analysis relative to control; assay type: cell-based; conditions: time 6.0 day
[29] = target: T1, Histone-lysine N-methyltransferase 2A/WDR5 (Homo sapiens); assay: Inhibition of MLL1-WDR5 interaction in human MV4-11 cells assessed as downregulation of Meis1 gene expression at 10 uM incubated for 6 days by qRT-PCR analysis relative to control; assay type: cell-based; conditions: time 6.0 day

Row | SMILES | IC50 [10] [µM] | GI50 [5] [µM] | GI50 [6] [µM] | GI50 [7] [µM] | GI50 [8] [µM] | GI50 [9] [µM] | further results
1 | Cc1c(F)c(N)cc(C(=O)Nc2cc(-c3ccc(N)cc3)ccc2N2CCN(C)CC2)c1Cl |  |  |  |  |  |  | inhibition [1]: Active; inhibition [2]: Active; inhibition [3]: Active; inhibition [4]: Active
2 | Cc1c(OCC(F)(F)F)ccnc1C[S@@+]([O-])c1nc2ccccc2[nH]1 [DEXLANSOPRAZOLE] | 5.7 | 25.1 | 27.2 | > 100 | > 100 | > 100 | 
3 | Cc1cccnc1C[S+]([O-])c1nc2ccccc2[nH]1 (stereo unspecified) | > 100 |  |  |  |  |  | 
4 | Cc1c(OCC(F)(F)F)ccnc1C[S+]([O-])c1nc2ccccc2[nH]1 (stereo unspecified) [LANSOPRAZOLE] | 5.9 | 21.1 | 30.1 | > 100 | > 100 | > 100 | 
5 | Cc1ccccc1C[S+]([O-])c1nc2ccccc2[nH]1 (stereo unspecified) | > 100 |  |  |  |  |  | 
6 | COCCCOc1ccnc(C[S+]([O-])c2nc3cc(OC(F)F)ccc3[nH]2)c1C (stereo unspecified) | 1.7 |  |  |  |  |  | 
7 | COCCCOc1ccnc(CS(=O)(=O)c2nc3cc(OC(F)F)ccc3[nH]2)c1 | > 100 |  |  |  |  |  | 
8 | COCCCOc1ccnc(C[S+]([O-])c2nc3ccccc3[nH]2)c1C (stereo unspecified) [RABEPRAZOLE] | 0.49 | 14.1 | 17.5 | > 100 | > 100 | > 100 | viability at 5 µM [11]: 86.4%; Activity [12]: 7.75%; Activity [13]: 5.65%; Activity [14]: 0.2%; viability at 10 µM [15]: 86.2%; Activity [16]: 4.75%; Activity [17]: 8.7%; Activity [18]: 0.3%; viability at 25 µM [19]: 76.3%; Activity [20]: 6.4%; Activity [21]: 16.5%; Activity [22]: 0.8%; Activity [23]: Dose-dependent effect; inhibition [24]: Dose-dependent effect; inhibition [25]: Dose-dependent effect; inhibition [26]: Dose-dependent effect; inhibition [27]: Dose-dependent effect; inhibition [28]: 50%; inhibition [29]: 50%

Second part, led by results:

Row | IC50 [10] [µM] | SMILES | GI50 [5] [µM] | GI50 [6] [µM] | GI50 [7] [µM] | GI50 [8] [µM] | GI50 [9] [µM] | further results
9 | > 100 | COc1c(C)cnc(C[S+]([O-])c2nc3ccccc3s2)c1C (stereo unspecified) |  |  |  |  |  | 
10 | > 100 | COc1c(C)cnc(C[S+]([O-])c2nc3ccccc3o2)c1C (stereo unspecified) |  |  |  |  |  | 
11 | 1.7 | COc1ccc2[nH]c([S+]([O-])Cc3ncc(C)c(OC)c3C)nc2c1 (stereo unspecified) [OMEPRAZOLE] | 37.3 | 34.1 | > 100 | > 100 | > 100 | 
12 | 1.8 | COc1ccc2nc([S@@+]([O-])Cc3ncc(C)c(OC)c3C)[nH]c2c1 [ESOMEPRAZOLE] | 47.6 | 32 | > 100 | > 100 | > 100 | 
13 | > 100 | COc1c(C)cnc(CSc2nc3ccccc3[nH]2)c1C |  |  |  |  |  | 
14 | 1.1 | COc1c(C)cnc(C[S+]([O-])c2nc3ccccc3[nH]2)c1C (stereo unspecified) |  |  |  |  |  | 
